# Reference: patent US20120122870A1, “Treatment Of Ischemia-Reperfusion Injury” (MUSC FOUNDATION FOR RESEARCH DEVELOPMENT, priority 2009, published 2012)
# What was measured:
# recombinant human SK = target: T1, recombinant human SK (Homo sapiens, UniProt Q9NYA1); experiment: Recombinant human SK activity assay ([3H]sphingosine to [3H]S1P); format: biochemical; details: Human SK incubated with 6 μg/mL of compound; percentage of SK activity inhibited
# T1 construct: GST (glutathione-S-transferase) (N); made in house; host or cells: bacteria (pGEX bacterial expression vector)
# T1 sequence (Q9NYA1 whole entry): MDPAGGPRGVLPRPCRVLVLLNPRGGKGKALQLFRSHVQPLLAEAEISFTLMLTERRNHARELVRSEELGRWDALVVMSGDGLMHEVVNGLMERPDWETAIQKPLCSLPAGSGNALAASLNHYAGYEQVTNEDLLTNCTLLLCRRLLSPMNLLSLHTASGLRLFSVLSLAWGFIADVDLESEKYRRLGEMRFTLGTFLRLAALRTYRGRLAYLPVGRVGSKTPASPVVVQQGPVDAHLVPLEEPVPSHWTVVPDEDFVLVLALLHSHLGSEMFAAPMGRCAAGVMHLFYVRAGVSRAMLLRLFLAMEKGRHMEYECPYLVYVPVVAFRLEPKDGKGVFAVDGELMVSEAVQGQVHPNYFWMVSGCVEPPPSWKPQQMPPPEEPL
# [1] = tested on: endogenous SK activity in MDA-MB-231 cells; experiment: Cellular S1P production (endogenous SK activity) in MDA-MB-231 cells; format: cell-based; details: for inhibition at 20 µg/mL: MDA-MB-231, MDA-MB-231 cells incubated with 20 μg/mL of compound
# Method in brief: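 MDA-MB-231 cells treated with 20 μg/mL compound and assayed for endogenous SK activity, reported as % inhibition of S1P production. For IC50, cells received varying compound concentrations and S1P produced was measured; IC50 is the concentration giving 50% inhibition.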
# [2] = Homo sapiens, percentage of S1P production inhibited
inhibition at 6 µg/mL (recombinant human SK) [%],"IC50 ([1]; Homo sapiens, MDA-MB-231 cells, varying concentrations, concentration inhibiting S1P production by 50%) [µM]",Recombinant SK (% inhibition) (recombinant human SK) [%],Structure (SMILES),"inhibition at 20 µg/mL [1, 2] [%]","Cellular S1P (% inhibition) ([1]; MDA-MB-231 cells incubated with 20 μg/mL of compound, percentage of S1P production inhibited) [%]"
33,51,,"CCn1c2ccccc2c2cc(NC(C)C34CC5CC(CC(c6ccc(Cl)cc6)(C5)C3)C4)ccc21 (stereo not shown) [A114, {1-[3-(4-Chloro-phenyl)-adamantan-1-yl]-ethyl}-(9-ethyl-9H-carbazol-3-yl)-amine]",46,
77,,,"CC(NC(=O)Nc1ccc(Cl)c(C(F)(F)F)c1)C12CC3CC(CC(c4ccc(Cl)cc4)(C3)C1)C2 (stereo not shown) [A118, 1-{1-[3-(4-Chloro-phenyl)-adamantan-1-yl]-ethyl}-3-(4-chloro-3-trifluoromethyl-phenyl)-urea]",5,
,,88,"CCCCCCCCCCCCCCCC(=O)Nc1nc(-c2ccc(Cl)cc2)cs1 [B3, Hexadecanoic acid [4-(4-chloro-phnyl)-thiazol-2-yl]-amide]",,34
